System: CD8+ T cells in PBMCs from patients with metastatic castrate-resistant prostate cancer
Test: Patient PBMC restimulation assay (in vitro immunogenicity of neoantigens)
Type: cell-based, human
Conditions: for Immunogenic: Patient PBMC restimulation, TNFα and IFNγ production by CD8+ T cells; for Maximum frequency of TNFα^+IFNγ^+CD8^+ T cells (Percent): greatest frequency among all tested PBMC donors, negative control 0.011-0.8 depending on patient; for Maximum fold change over negative control: TNFα+IFNγ+CD8+ T cells, highest fold change across the PBMC donors evaluated, 9 mer peptide
Protocol: PBMCs from human patients with metastatic castrate-resistant prostate cancer were thawed using media (RPMI 1640 supplemented with Glutamax, 10% HI FBS, and 1× Sodium Pyruvate). Cells were counted and plated in a 96 well round bottom microplate at a concentration of 250,000 viable cells per well. Lyophilized peptides were solubilized in 100% DMSO and diluted in media to 10 μg/mL. Neoantigen peptides were added in equal volume to PBMCs for a final concentration of 5 μg/mL. CEF Peptide Pool “Plus” (Cellular Technologies, Ltd.) was utilized as a positive control and DMSO at the same final concentration as the experimental peptides was utilized as a negative control. Human IL-15 (Peprotech) was added to all wells at final concentration of 10 ng/mL.
Plates were incubated at 37° C. (5% CO2) for a total of 13 days. Media was refreshed every 2 days with IL-15 (10 ng/mL final concentration) and IL-2 (R&D systems, 10 IU/mL final concentration). On day 12, PBMCs were re-stimulated with identical experimental peptides or controls, at same concentration as peptide stimulation on Day 1. After 1-hour incubation, protein Inhibitor Cocktail (eBioscience) was added to every well and plate was incubated overnight.
On day 13, cells were stained for intracellular flow cytometry analysis. The cells were washed with PBS and stained with Live/Dead Fixable Aqua Dead Cell stain (Thermo-Fisher). Following the live/dead stain, cells were blocked using Biotin-Free Fc Receptor Blocker (Accurate Chemical & Scientific Corp). Extracellular cellular flow panel (1 μL/antibody per well in 50 μL) consisted of CD3 PerCP-Cy5.5 (Biolegend), CD4 BV421 (Biolegend), and CD8 APC-Cy7 (Biolegend). After extracellular staining, cells were fixed using Foxp3/Transcription Factor Staining Buffer Set (eBioscience) and stained for intracellular proteins (1:50 dilution) using TNFα FITC (R&D Systems) and IFNγ BV785 (Biolegend). Cells were washed and resuspended in stain buffer and analyzed using a BD Celesta flow cytometer.
Flow cytometry cell staining analysis was completed using FlowJo v10. Cells were gated on live, singlet, CD3+ cells. The CD8+ T cells were analyzed for TNFα/IFNγ expression and the frequency of double positive TNFα/IFNγ CD8+ T cells was recorded. Responses were assessed to be positive when the frequency of double positive TNFα/IFNγ CD8+ T cells due to stimulation with an experimental peptide was increased greater than or equal to 2-fold over the DMSO only negative control for that patient. Peptides were analyzed in 1 to 7 patient samples.
The 9 mer fragments shown in Table 13 were assessed for their ability to activate T cells using the Patient PBMC restimulation assay described in Example 1 using TNFα and IFNγ production by CD8^+ T cells as a readout. Self-antigens shown in Table 15 were also used in the assays. […] PBMCs from ten patients were evaluated.

Substance	Immunogenic	Maximum frequency of TNFα^+IFNγ^+CD8^+ T cells (Percent) [%]	Maximum fold change over negative control
P37 (GVLRRLLCR) [Peptide P37]	Yes	1.160	
P50 (IQYSCMGLM) [Peptide P50]	Yes	0.190	5.14
P59 (NMVENGCYL) [Peptide P59]	Yes	3.010	10.75
P27 (FPVGAEGTF) [Peptide P27]	Yes	0.430	3.43

Source: patent publication US20230035403A1, “Method For Determining Responsiveness To Prostate Cancer Treatment” (Janssen Biotech, Inc., priority 2020, published 2023)
